Laboratory results: ChEMBL document CHEMBL5649169 (ChemMedChem, 2018)

Experiments:
[1] = target: ATP-dependent RNA helicase DDX24 (Homo sapiens) (UniProt Q9GZR7)
Homo sapiens [2] = species on record: Homo sapiens
[3] = target: Glucose-6-phosphate isomerase (Homo sapiens) (UniProt P06744)
[4] = target: ATP-dependent RNA helicase DDX3X (Homo sapiens) (UniProt O00571)
[5] = target: Sorting and assembly machinery component 50 homolog (Homo sapiens) (UniProt Q9Y512)
[6] = target: Transcriptional repressor p66-alpha (Homo sapiens) (UniProt Q86YP4)
[7] = target: GTPase-activating protein and VPS9 domain-containing protein 1 (Homo sapiens) (UniProt Q14C86)
[8] = target: Acylamino-acid-releasing enzyme (Homo sapiens) (UniProt P13798)
[9] = target: Stathmin-2 (Homo sapiens) (UniProt Q93045)
[10] = target: Small ribosomal subunit protein uS4 (Homo sapiens) (UniProt P46781)
[11] = target: Elongation factor 1-gamma (Homo sapiens) (UniProt P26641)
[12] = target: TGF-beta receptor type-1 (Homo sapiens) (UniProt P36897)
TGF-beta receptor type-1 (Homo sapiens), sequence (P36897 whole entry): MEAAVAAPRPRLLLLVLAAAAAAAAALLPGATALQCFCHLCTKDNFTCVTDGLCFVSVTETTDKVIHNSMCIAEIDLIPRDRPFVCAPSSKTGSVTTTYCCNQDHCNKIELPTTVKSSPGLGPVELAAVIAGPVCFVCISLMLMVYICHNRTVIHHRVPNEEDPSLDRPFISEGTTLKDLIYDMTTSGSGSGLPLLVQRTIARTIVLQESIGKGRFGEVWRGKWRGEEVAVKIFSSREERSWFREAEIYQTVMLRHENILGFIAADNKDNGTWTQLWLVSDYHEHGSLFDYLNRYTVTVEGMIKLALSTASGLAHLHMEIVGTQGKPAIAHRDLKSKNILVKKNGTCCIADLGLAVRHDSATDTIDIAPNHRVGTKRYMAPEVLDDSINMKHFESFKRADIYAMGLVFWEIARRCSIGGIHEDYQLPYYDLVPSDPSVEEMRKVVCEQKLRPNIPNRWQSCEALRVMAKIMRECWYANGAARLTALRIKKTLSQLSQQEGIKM

[13] = target: Synaptophysin-like protein 1 (Homo sapiens) (UniProt Q16563)
[14] = target: AP-2 complex subunit mu (Homo sapiens) (UniProt Q96CW1)
AP-2 complex subunit mu (Homo sapiens), sequence (Q96CW1 whole entry, one chain of several): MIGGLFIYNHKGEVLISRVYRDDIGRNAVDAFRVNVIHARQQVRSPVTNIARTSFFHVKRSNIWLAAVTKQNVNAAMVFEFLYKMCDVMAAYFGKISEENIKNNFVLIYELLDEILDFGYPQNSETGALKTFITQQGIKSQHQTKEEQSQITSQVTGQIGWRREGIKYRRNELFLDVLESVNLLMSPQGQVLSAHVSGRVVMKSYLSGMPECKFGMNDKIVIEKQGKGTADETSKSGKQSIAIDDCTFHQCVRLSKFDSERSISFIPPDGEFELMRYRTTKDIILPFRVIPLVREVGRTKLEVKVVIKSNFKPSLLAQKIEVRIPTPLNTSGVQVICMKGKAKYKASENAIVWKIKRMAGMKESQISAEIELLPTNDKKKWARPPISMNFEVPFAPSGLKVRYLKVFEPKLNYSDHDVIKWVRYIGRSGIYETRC

[15] = target: Gem-associated protein 5 (Homo sapiens) (UniProt Q8TEQ6)
[16] = target: Mitogen-activated protein kinase kinase kinase 20 (Homo sapiens) (UniProt Q9NYL2)
[17] = target: Serine/arginine-rich splicing factor 6 (Homo sapiens) (UniProt Q13247)
[18] = target: Dual specificity protein kinase CLK2 (Homo sapiens) (UniProt P49760)
[19] = target: 26S proteasome regulatory subunit 10B (Homo sapiens) (UniProt P62333)
26S proteasome regulatory subunit 10B (Homo sapiens), sequence (P62333 whole entry): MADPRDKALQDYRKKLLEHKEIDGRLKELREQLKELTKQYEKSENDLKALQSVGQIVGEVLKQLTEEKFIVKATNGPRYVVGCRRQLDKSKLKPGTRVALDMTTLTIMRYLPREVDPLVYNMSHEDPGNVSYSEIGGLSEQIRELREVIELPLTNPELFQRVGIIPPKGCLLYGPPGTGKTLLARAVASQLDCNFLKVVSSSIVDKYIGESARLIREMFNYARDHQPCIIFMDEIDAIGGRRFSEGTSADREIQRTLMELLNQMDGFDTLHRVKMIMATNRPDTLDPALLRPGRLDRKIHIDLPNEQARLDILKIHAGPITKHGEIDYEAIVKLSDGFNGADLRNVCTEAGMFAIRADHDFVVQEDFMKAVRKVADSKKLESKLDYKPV

[20] = target: Threonine--tRNA ligase 1, cytoplasmic (Homo sapiens) (UniProt P26639)
Threonine--tRNA ligase 1, cytoplasmic (Homo sapiens), sequence (P26639 whole entry): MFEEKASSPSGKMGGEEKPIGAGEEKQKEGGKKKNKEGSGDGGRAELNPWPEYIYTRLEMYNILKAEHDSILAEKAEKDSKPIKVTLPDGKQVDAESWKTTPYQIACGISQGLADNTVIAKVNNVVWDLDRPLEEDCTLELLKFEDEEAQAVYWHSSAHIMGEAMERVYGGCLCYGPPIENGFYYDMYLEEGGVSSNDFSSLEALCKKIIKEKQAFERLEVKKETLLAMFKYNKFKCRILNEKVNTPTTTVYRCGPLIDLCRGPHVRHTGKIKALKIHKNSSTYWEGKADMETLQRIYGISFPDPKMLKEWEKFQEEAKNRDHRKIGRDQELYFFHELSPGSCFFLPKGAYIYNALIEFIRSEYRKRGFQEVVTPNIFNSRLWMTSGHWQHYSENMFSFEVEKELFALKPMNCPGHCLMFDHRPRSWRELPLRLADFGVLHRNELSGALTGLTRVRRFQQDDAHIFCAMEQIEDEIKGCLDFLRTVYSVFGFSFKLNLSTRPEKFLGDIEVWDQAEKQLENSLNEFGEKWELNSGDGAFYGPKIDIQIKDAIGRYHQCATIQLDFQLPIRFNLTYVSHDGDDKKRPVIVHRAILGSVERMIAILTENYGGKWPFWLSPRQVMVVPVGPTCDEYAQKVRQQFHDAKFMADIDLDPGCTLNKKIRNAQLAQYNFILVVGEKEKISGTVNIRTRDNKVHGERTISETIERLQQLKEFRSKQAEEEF

[21] = target: Putative divalent cation/proton antiporter TMEM165 (Homo sapiens) (UniProt Q9HC07)
[22] = target: Nucleoside diphosphate kinase A (Homo sapiens) (UniProt P15531)
[23] = target: Eukaryotic translation initiation factor 2A (Homo sapiens) (UniProt Q9BY44)
Stathmin (Homo sapiens) = Stathmin (Homo sapiens) (UniProt P16949)
[24] = target: Serine/threonine-protein phosphatase 2A 55 kDa regulatory subunit B alpha isoform (Homo sapiens) (UniProt P63151)
Homo sapiens [25] = species on record: Homo sapiens; remark: listed apart in the source
[26] = target: Probable ATP-dependent RNA helicase DDX17 (Homo sapiens) (UniProt Q92841)
[27] = target: Large ribosomal subunit protein eL22 (Homo sapiens) (UniProt P35268)
Calumenin (Homo sapiens) = Calumenin (Homo sapiens) (UniProt O43852)
[28] = target: B-cell receptor-associated protein 31 (Homo sapiens) (UniProt P51572)
[29] = target: Large ribosomal subunit protein uL24 (Homo sapiens) (UniProt P61254)
[30] = target: Heme oxygenase 2 (Homo sapiens) (UniProt P30519)
Heme oxygenase 2 (Homo sapiens), sequence (P30519 whole entry): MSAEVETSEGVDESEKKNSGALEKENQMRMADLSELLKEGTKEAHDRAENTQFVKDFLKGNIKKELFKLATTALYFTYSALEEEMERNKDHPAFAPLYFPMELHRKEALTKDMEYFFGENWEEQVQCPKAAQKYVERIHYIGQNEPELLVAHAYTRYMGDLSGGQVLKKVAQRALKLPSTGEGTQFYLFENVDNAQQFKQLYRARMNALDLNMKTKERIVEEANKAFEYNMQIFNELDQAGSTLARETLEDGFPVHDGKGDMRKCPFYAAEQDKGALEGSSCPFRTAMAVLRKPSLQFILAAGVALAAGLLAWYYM

[31] = target: Large ribosomal subunit protein eL15 (Homo sapiens) (UniProt P61313)
[32] = target: Thiol S-methyltransferase TMT1A (Homo sapiens) (UniProt Q9H8H3)
[33] = target: Rho-associated protein kinase 1 (Homo sapiens) (UniProt Q13464)
[34] = target: Ethanolaminephosphotransferase 1 (Homo sapiens) (UniProt Q9C0D9)
[35] = target: Protein-tyrosine kinase 2-beta (Homo sapiens) (UniProt Q14289)
Homo sapiens [36] = species on record: Homo sapiens; remark: listed apart in the source
[37] = target: Eukaryotic translation initiation factor 5B (Homo sapiens) (UniProt O60841)
[38] = target: ATP-dependent DNA helicase Q1 (Homo sapiens) (UniProt P46063)
ATP-dependent DNA helicase Q1 (Homo sapiens), sequence (P46063 whole entry): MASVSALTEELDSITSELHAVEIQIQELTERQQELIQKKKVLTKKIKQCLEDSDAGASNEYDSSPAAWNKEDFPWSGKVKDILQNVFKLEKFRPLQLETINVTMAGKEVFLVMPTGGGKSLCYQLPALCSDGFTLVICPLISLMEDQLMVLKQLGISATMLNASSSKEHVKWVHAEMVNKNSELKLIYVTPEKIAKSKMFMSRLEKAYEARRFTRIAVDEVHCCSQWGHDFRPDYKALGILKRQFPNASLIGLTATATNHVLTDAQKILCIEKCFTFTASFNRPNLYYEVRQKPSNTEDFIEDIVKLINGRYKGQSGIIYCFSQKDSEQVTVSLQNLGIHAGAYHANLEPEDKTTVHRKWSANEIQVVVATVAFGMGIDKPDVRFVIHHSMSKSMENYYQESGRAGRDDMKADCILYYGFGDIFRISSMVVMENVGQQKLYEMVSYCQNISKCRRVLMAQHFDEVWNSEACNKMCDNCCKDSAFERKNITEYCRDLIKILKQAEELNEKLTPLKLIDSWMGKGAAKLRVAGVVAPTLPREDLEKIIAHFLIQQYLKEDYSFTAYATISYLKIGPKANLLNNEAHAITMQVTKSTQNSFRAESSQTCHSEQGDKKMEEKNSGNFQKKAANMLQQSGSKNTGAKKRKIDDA

[39] = target: EKC/KEOPS complex subunit TP53RK (Homo sapiens) (UniProt Q96S44)
[40] = target: Ubiquitin carboxyl-terminal hydrolase 7 (Homo sapiens) (UniProt Q93009)
[41] = target: Tryptophan--tRNA ligase, cytoplasmic (Homo sapiens) (UniProt P23381)
Tryptophan--tRNA ligase, cytoplasmic (Homo sapiens), sequence (P23381 whole entry): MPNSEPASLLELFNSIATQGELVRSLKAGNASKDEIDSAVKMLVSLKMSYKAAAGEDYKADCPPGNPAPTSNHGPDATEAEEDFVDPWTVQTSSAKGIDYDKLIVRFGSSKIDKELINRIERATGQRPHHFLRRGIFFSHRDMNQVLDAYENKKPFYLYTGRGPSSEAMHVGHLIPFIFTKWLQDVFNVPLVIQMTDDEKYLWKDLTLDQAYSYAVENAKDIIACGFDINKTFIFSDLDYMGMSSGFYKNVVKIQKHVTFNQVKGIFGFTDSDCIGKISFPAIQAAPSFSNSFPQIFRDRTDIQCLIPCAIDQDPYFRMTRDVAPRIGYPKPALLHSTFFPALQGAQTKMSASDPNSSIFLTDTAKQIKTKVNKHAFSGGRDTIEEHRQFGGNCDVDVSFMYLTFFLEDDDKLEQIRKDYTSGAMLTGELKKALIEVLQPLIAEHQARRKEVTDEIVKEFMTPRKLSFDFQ

[42] = target: Mitochondrial carrier homolog 2 (Homo sapiens) (UniProt Q9Y6C9)
Mitochondrial carrier homolog 2 (Homo sapiens), sequence (Q9Y6C9 whole entry): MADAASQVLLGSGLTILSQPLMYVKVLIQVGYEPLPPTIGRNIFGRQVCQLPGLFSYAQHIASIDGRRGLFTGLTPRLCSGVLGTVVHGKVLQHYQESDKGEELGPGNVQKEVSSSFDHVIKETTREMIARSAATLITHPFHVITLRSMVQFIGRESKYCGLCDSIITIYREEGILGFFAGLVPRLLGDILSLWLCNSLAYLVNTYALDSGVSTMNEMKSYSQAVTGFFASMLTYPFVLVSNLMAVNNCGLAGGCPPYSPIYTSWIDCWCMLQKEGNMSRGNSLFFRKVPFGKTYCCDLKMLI

[43] = target: High mobility group protein B2 (Homo sapiens) (UniProt P26583)
High mobility group protein B2 (Homo sapiens), sequence (P26583 whole entry): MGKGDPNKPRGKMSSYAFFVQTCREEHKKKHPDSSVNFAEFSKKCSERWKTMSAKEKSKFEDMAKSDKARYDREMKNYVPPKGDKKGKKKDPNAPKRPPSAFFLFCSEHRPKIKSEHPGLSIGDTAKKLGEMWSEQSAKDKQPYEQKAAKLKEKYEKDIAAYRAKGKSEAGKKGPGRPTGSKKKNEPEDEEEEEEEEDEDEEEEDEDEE

[44] = target: Leucine-rich repeat flightless-interacting protein 1 (Homo sapiens) (UniProt Q32MZ4)
[45] = target: Eukaryotic translation initiation factor 3 subunit J (Homo sapiens) (UniProt O75822)
Further: assay method not described here.

ATP-dependent RNA helicase DDX24 (Homo sapiens), sequence (Q9GZR7 whole entry): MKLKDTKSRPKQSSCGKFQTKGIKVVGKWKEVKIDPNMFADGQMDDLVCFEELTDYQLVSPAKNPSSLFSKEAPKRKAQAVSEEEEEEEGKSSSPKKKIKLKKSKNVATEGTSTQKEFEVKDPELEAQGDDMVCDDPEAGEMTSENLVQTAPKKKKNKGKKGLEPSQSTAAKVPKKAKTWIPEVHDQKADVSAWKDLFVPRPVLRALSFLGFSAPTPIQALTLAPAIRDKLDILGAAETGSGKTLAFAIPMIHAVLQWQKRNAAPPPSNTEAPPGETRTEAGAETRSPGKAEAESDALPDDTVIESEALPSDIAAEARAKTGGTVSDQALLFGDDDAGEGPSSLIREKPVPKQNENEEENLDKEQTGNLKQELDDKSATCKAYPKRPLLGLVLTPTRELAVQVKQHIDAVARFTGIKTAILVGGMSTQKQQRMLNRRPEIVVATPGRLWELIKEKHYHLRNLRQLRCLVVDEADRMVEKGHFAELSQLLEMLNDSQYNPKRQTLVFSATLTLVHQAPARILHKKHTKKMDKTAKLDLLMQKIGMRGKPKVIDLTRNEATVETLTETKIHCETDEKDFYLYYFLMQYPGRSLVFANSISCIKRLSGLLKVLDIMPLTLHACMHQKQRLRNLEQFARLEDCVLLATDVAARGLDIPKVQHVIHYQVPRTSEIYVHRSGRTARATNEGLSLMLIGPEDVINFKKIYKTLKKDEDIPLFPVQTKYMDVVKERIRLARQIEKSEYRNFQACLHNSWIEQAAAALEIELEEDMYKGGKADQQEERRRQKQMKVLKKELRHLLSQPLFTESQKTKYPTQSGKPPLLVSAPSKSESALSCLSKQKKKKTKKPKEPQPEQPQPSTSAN

## Cc1ccc(C(=O)Nc2cccc(C(F)(F)F)c2)cc1Nc1nc(-c2cccnc2)nc2c1cnn2C
[1]
  ED50: 2.99 µM
Homo sapiens [2]
  ED50: 6.33 µM
[3]
  ED50: 4.55 µM
[4]
  ED50: 3.01 µM
[5]
  ED50: 0.784 µM
[6]
  ED50: 3.46 µM
[7]
  ED50: 7.36 µM
[8]
  ED50: 0.0282 µM
[9]
  ED50: 0.00439 µM
[10]
  ED50: 10.7 µM
[11]
  ED50: 0.0114 µM
[12]
  ED50: 0.000384 µM
[13]
  ED50: 6.43 µM
[14]
  ED50: 5.13 µM
[15]
  ED50: 105 µM
[16]
  ED50: 0.907 µM
[17]
  ED50: 5.98 µM
[18]
  ED50: 117 µM
[19]
  ED50: 43.4 µM
[20]
  ED50: 0.00531 µM
[21]
  ED50: 8.83 µM
[22]
  ED50: 7.65 µM
[23]
  ED50: 25.7 µM
Stathmin (Homo sapiens)
  ED50: 12.4 µM
[24]
  ED50: 3.68 µM
Homo sapiens [25]
  ED50: 322 µM
[26]
  ED50: 0.126 µM
[27]
  ED50: 784 µM
Calumenin (Homo sapiens)
  ED50: 1.72 µM
[28]
  ED50: 0.0691 µM
[29]
  ED50: 6.18 µM
[30]
  ED50: 4.08 µM
[31]
  ED50: 0.425 µM
[32]
  ED50: 30.4 µM
[33]
  ED50: 11 µM
[34]
  ED50: 1.54 µM
[35]
  ED50: 0.433 µM
Homo sapiens [36]
  ED50: 3.03 µM
[37]
  ED50: 41.8 µM
[38]
  ED50: 0.0304 µM
[39]
  ED50: 3.47 µM
[40]
  ED50: 0.00616 µM
[41]
  ED50: 0.0163 µM
[42]
  ED50: 0.0279 µM
[43]
  ED50: 11.3 µM
[44]
  ED50: 3.51 µM
[45]
  ED50: 0.126 µM

## Cc1ccc(C(=O)Nc2cccc(C(F)(F)F)c2)cc1Nc1nc(-c2cccnc2)nc2nn(C)cc12
[1]
  ED50: 0.1 µM
Homo sapiens [2]
  ED50: 6.81 µM
[3]
  ED50: 36500 µM
[4]
  ED50: 0.00683 µM
[5]
  ED50: 0.00806 µM
[6]
  ED50: 0.041 µM
[7]
  ED50: 9.47 µM
[8]
  ED50: 3.75 µM
[9]
  ED50: 10.5 µM
[10]
  ED50: 0.000236 µM
[11]
  ED50: 0.000491 µM
[12]
  ED50: 0.029 µM
[13]
  ED50: 0.0536 µM
[14]
  ED50: 211 µM
[15]
  ED50: 0.232 µM
[16]
  ED50: 7.75 µM
[17]
  ED50: 32.5 µM
[18]
  ED50: 6.69 µM
[19]
  ED50: 0.164 µM
[20]
  ED50: 0.0576 µM
[21]
  ED50: 0.0171 µM
[22]
  ED50: 2.02 µM
[23]
  ED50: 0.0386 µM
Stathmin (Homo sapiens)
  ED50: 8.26 µM
[24]
  ED50: 0.377 µM
Homo sapiens [25]
  ED50: 0.0718 µM
[26]
  ED50: 16.2 µM
[27]
  ED50: 0.00758 µM
Calumenin (Homo sapiens)
  ED50: 3.41 µM
[28]
  ED50: 1.7 µM
[29]
  ED50: 0.0162 µM
[30]
  ED50: 0.02 µM
[31]
  ED50: 0.0592 µM
[32]
  ED50: 2.97 µM
[33]
  ED50: 2.23 µM
[34]
  ED50: 0.809 µM
[35]
  ED50: 36.6 µM
Homo sapiens [36]
  ED50: 7.5 µM
[37]
  ED50: 383 µM
[38]
  ED50: 12.9 µM
[39]
  ED50: 0.485 µM
[40]
  ED50: 0.049 µM
[41]
  ED50: 29.9 µM
[42]
  ED50: 0.13 µM
[43]
  ED50: 0.0527 µM
[44]
  ED50: 0.228 µM
[45]
  ED50: 0.54 µM
